Data from US11766496B2, “Antimicrobial fabric freshening compositions containing octenidine dihydrochloride” (The Procter & Gamble Company, priority 2019, dated 2023).
≈ marks a conversion by molar mass, not a printed value.

Experiments:
Assay type in all cases: cell-based
[1] = tested on: Staphylococcus aureus (S. aureus—ATCC #6538); experiment: Minimum Biocidal Concentration (MBC) in suspension
Description: (§1) The antimicrobial efficacy of the antimicrobial agent in the composition is determined by measuring its Minimum Biocidal Concentration (MBC). The MBC is defined as the lowest absolute concentration of the particular antimicrobial active which provides complete kill (zero bacterial growth). The MBC of the compositions herein was determined against the bacterium, Staphylococcus aureus (S. aureus—ATCC #6538), a gram positive bacterium, and against Escherichia coli (E. coli—ATCC #8739), a gram negative bacterium. These microorganisms are representative of natural contaminants in many consumer and industrial applications. The bacteria inoculum was prepared by transferring several colonies from a Tryptone Soy Agar (TSA) plate to a saline solution (0.85% NaCl), the bacteria concentration in this saline solution was determined by measuring the % Transmittance at 425 nm and adjusted by either adding more bacteria or more saline solution until the % Transmittance at 425 nm was between 23-25% for S. aureus, and between 30-32% for E. coli, this % transmittance corresponds to a bacteria concentration of 10^8 CFU/ml. […] Each subsequent well (rows B to G) were dosed with 100 μL of the same fabric refresher composition, without the addition of the antimicrobial agent. 100 μL of the fabric refresher composition comprising the antimicrobial active was transferred from row A to row B and mixed. 100 μL of the composition was then transferred from row B to row C and mixed, and the process repeated to row G. As such, the concentration of the antimicrobial agent underwent two-fold dilution in adjacent wells, while the concentration of the other actives in the fabric refresher composition remained constant across all the wells in the same column. 10 μL of the 10^8 CFU/ml bacteria suspension in saline was added to wells A to F of the microtiter plate with row G kept as a nil bacteria control. The final volume in each well was 110 μL, except for row G which comprised 100 μL of the fabric refresher composition and no bacteria suspension. […] The plate was incubated at 32.5° C. for 48 h. MBC concentration is taken as the lowest concentration of the antimicrobial active at which no visible colony growth is observed on the TSA plate. The antibacterial efficacy of the bispyridinium alkane octenidine hydrochloride was compared to that of quaternary ammonium and alkylamine antimicrobial compounds in two fabric freshening compositions.

[2] = tested on: Escherichia coli (E. coli—ATCC #8739); experiment: Minimum Biocidal Concentration (MBC) in suspension
Description: as §1

[3] = tested on: Staphylococcus aureus (S. aureus—ATCC #6538); experiment: Antibacterial efficacy on fabrics (cotton carriers); conditions: cotton fabric carriers; 0.05% antimicrobial active; 10 mins contact time; 5% horse serum soil load
Description: The bactericidal efficacy on fabric surfaces of fabric refresher compositions comprising different antimicrobial agents was determined against the bacterium, Staphylococcus aureus (S. aureus—ATCC #6538). The bacteria inoculum was prepared by transferring several colonies from a Tryptone Soy Agar (TSA) plate to a saline solution (0.85% NaCl) comprising 5% horse serum as additional soil load, the bacteria concentration in this saline solution was determined by measuring the % Transmittance at 425 nm and adjusted by either adding more bacteria or more saline solution until the % Transmittance at 425 nm is between 23-25% which corresponds to a bacteria concentration of 10^8 CFU/ml.
Fabric carriers, 1 cm×1 cm disks of cotton sterilized by autoclaving, were inoculated with 50 μL of the 10^8 CFU/ml bacteria inoculum and incubated for 30 mins at 32° C. After this incubation period, fabric carriers were treated with 2.5 ml of different fabric refresher compositions comprising no antimicrobial active (reference), or 0.05% of either bispyridinium alkane (octenidine dihydrochloride) or N-(3-aminopropyl)-N-dodecylpropane-1,3-diamine (Lonzabac 12.30) as antimicrobial actives. […] 100 μL of each of the serial dilutions were plated on a TSA plate, plates were incubated at 32° C. for 48 hours, after this incubation time, the number of colonies in each plate was counted. […]

[4] = in fabric freshening Composition 1, 20 minutes contact time
[5] = in fabric freshening Composition 2, 20 minutes contact time

Compound | MBC (ppm) against S. aureus [1, 4] | MBC (ppm) against S. aureus [1, 5] | MBC (ppm) against E. coli [2, 4] | MBC (ppm) against E. coli [2, 5] | Number of bacteria extracted from treated fabrics [3] | MBC ([1]; Staphylococcus aureus, ATCC6538, 20 min, in fabric freshening Composition 1, 20 minutes contact time, read-out: MBC (ppm) against S. aureus) | MBC ([2]; Escherichia coli, ATCC8739, 20 min, in fabric freshening Composition 1, 20 minutes contact time, read-out: MBC (ppm) against E. coli)
CCCCCCCCN=c1ccn(CCCCCCCCCCn2ccc(=NCCCCCCCC)cc2)cc1.Cl.Cl [Bispyridinium alkane (6), octenidine dihydrochloride] | 125 ppm | 47 ppm | 500 ppm | 250 ppm | no viable bacteria were recovered |  | 
CCCCCCCCCCCCN(CCCN)CCCN [N-(3-aminopropyl)-N-dodecylpropane-1,3-diamine] |  | 3000 ppm |  | 3000 ppm | about 10^4 CFU/ml | 3000 µg/mL (≈ 10 mM) | 3000 µg/mL (≈ 10 mM)
N-alkyl dimethyl benzyl ammonium chloride [N-alkyl dimethyl benzyl ammonium chloride (9)] | 375 ppm |  | 3000 ppm |  |  |  | 
N-alkyl dimethyl benzyl ammonium chloride [N-alkyl dimethyl benzyl ammonium chloride (10)] | 562.5 ppm |  | 1500 ppm |  |  |  | 
